Results from PubChem BioAssay AID256 (DTP/NCI, 2004).
Several values for one entry are separate records, joined by “and”; a condition that tells them apart may be missing. Identical values can stand only once. Inconclusive results and toxic doses are left out. The calls were made as follows: active = survival T/C of 150% or more; inactive = T/C below 125% in these data.

Tested on: CD2F1 mice, L1210 leukemia ip, survival T/C
Test: NCI In Vivo Anticancer Drug Screen. Data for tumor model L1210 Leukemia (intraperitoneal) in CD2F1 (CDF1) mice
Details: higher = longer survival
Summary of the method: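 Each value reflects a quotient of treated over vehicle control outcomes in mice with a transplanted tumor.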

[1] = endpoint: mean survival time, dose: 100.0 mg/kg/injection, schedule: Q04DX002 (ip), vehicle: saline with Tween-80
[2] = endpoint: mean survival time, dose: 75.0 mg/kg/injection, schedule: Q01DX001 (ip), vehicle: saline
[3] = endpoint: mean survival time, dose: 150.0 mg/kg/injection, schedule: Q01DX001 (ip), vehicle: saline
[4] = endpoint: mean survival time, dose: 300.0 mg/kg/injection, schedule: Q01DX001 (ip), vehicle: saline
[5] = endpoint: mean survival time, dose: 100.0 mg/kg/injection, schedule: Q04DX003 (ip), vehicle: Klucel (hydroxypropylcellulose) (HPC)
[6] = endpoint: mean survival time, dose: 200.0 mg/kg/injection, schedule: Q04DX003 (ip), vehicle: Klucel (hydroxypropylcellulose) (HPC)
[7] = endpoint: mean survival time, dose: 400.0 mg/kg/injection, schedule: Q04DX003 (ip), vehicle: Klucel (hydroxypropylcellulose) (HPC)
[8] = endpoint: mean survival time, dose: 100.0 mg/kg/injection, schedule: Q04DX003 (ip), vehicle: saline with Tween-80
[9] = endpoint: mean survival time, dose: 200.0 mg/kg/injection, schedule: Q04DX003 (ip), vehicle: saline with Tween-80
[10] = endpoint: mean survival time, dose: 400.0 mg/kg/injection, schedule: Q04DX003 (ip), vehicle: saline with Tween-80
[11] = endpoint: mean survival time, dose: 100.0 mg/kg/injection, schedule: Q01DX009 (ip), vehicle: saline with Tween-80
[12] = endpoint: mean survival time, dose: 200.0 mg/kg/injection, schedule: Q01DX009 (ip), vehicle: saline with Tween-80
[13] = endpoint: mean survival time, dose: 100.0 mg/kg/injection, schedule: Q01DX001 (ip), vehicle: saline
[14] = endpoint: mean survival time, dose: 200.0 mg/kg/injection, schedule: Q01DX001 (ip), vehicle: saline
[15] = endpoint: mean survival time, dose: 12.5 mg/kg/injection, schedule: Q01DX009 (ip), vehicle: saline with Tween-80
[16] = endpoint: mean survival time, dose: 25.0 mg/kg/injection, schedule: Q01DX009 (ip), vehicle: saline with Tween-80
[17] = endpoint: mean survival time, dose: 50.0 mg/kg/injection, schedule: Q01DX009 (ip), vehicle: saline with Tween-80
[18] = endpoint: mean survival time, dose: 100.0 mg/kg/injection, schedule: Q01DX001 (ip), vehicle: saline with Tween-80
[19] = endpoint: mean survival time, dose: 200.0 mg/kg/injection, schedule: Q01DX001 (ip), vehicle: saline with Tween-80
[20] = endpoint: mean survival time, dose: 400.0 mg/kg/injection, schedule: Q01DX001 (ip), vehicle: saline with Tween-80

Measured: T/C

CCCN=C(N)C(N)=NCCC (tested in a mixture with another compound)
inactive: endpoint: mean survival time, dose: 100.0 mg/kg/injection, schedule: Q04DX002 (ip), vehicle: other 106 % of control | [1] 95 % of control | endpoint: mean survival time, dose: 200.0 mg/kg/injection, schedule: Q04DX002 (ip), vehicle: other 103 % of control | endpoint: mean survival time, dose: 200.0 mg/kg/injection, schedule: Q04DX002 (ip), vehicle: saline with Tween-80 100 % of control | endpoint: mean survival time, dose: 400.0 mg/kg/injection, schedule: Q04DX002 (ip), vehicle: other 91 % of control | endpoint: mean survival time, dose: 400.0 mg/kg/injection, schedule: Q04DX002 (ip), vehicle: saline with Tween-80 91 % of control

NCCCNc1ccc([N+](=O)[O-])cc1
inactive: [2] 98 % of control | [3] 106 % of control | [4] 98 % of control

COc1ccccc1/C=N/NC(=O)c1ccccc1
inactive: endpoint: mean survival time, dose: 100.0 mg/kg/injection, schedule: Q01DX009 (ip), vehicle: Klucel (hydroxypropylcellulose) (HPC) 102 % of control | [5] 91 % of control | endpoint: mean survival time, dose: 200.0 mg/kg/injection, schedule: Q01DX009 (ip), vehicle: Klucel (hydroxypropylcellulose) (HPC) 96 % of control | [6] 96 % of control | endpoint: mean survival time, dose: 400.0 mg/kg/injection, schedule: Q01DX009 (ip), vehicle: Klucel (hydroxypropylcellulose) (HPC) 108 % of control | [7] 94 % of control

C[n+]1ccc(/C(=N\O)c2ccccc2)cc1
inactive: endpoint: mean survival time, dose: 37.5 mg/kg/injection, schedule: Q04DX003 (ip), vehicle: saline 100 % of control | [2] 101 % of control | endpoint: mean survival time, dose: 75.0 mg/kg/injection, schedule: Q04DX003 (ip), vehicle: saline 100 % of control | [3] 97 % of control | endpoint: mean survival time, dose: 150.0 mg/kg/injection, schedule: Q04DX003 (ip), vehicle: saline 95 % of control

Cc1ccc(N=C=C(c2ccccc2)c2ccccc2)cc1
inactive: [8] 94 % of control | [9] 97 % of control | [10] 94 % of control

CCCCCCCCCCCCCCCCOC(=O)c1cc([N+](=O)[O-])c(Sc2ncnc3nc[nH]c23)c([N+](=O)[O-])c1
inactive: endpoint: mean survival time, dose: 6.25 mg/kg/injection, schedule: Q01DX005 (ip), vehicle: other 105 % of control | endpoint: mean survival time, dose: 12.5 mg/kg/injection, schedule: Q01DX005 (ip), vehicle: other 110 % of control | endpoint: mean survival time, dose: 25.0 mg/kg/injection, schedule: Q01DX005 (ip), vehicle: other 107 % of control | endpoint: mean survival time, dose: 50.0 mg/kg/injection, schedule: Q01DX005 (ip), vehicle: other 117 % of control | endpoint: mean survival time, dose: 100.0 mg/kg/injection, schedule: Q01DX005 (ip), vehicle: other 102 % of control

O=C(O)CCCCCCCCCCCCCCCCCCCCC(=O)O
inactive: [8] 87 % of control | [9] 102 % of control | [10] 87 % of control

Cc1cc2ncn(C(=O)Nc3ccccc3)c2cc1C
inactive: [11] 105 % of control | [12] 94 % of control | endpoint: mean survival time, dose: 400.0 mg/kg/injection, schedule: Q01DX009 (ip), vehicle: saline with Tween-80 96 % of control

NC(=O)C1=C(CCCCl)c2ccccc2C1=O
inactive: endpoint: mean survival time, dose: 50.0 mg/kg/injection, schedule: Q04DX003 (ip), vehicle: saline 112 % of control | [13] 102 % of control | endpoint: mean survival time, dose: 100.0 mg/kg/injection, schedule: Q04DX003 (ip), vehicle: saline 115 % of control | [14] 95 % of control | endpoint: mean survival time, dose: 200.0 mg/kg/injection, schedule: Q04DX003 (ip), vehicle: saline 90 % of control

OC1CCCCO1 (configuration not stated)
inactive: [8] 100 % of control | [9] 103 % of control | [10] 103 % of control

CC(C)CCOC(=S)S.[Pt]
inactive: endpoint: mean survival time, dose: 9.37 mg/kg/injection, schedule: Q04DX003 (ip), vehicle: saline with Tween-80 112 % of control | endpoint: mean survival time, dose: 18.75 mg/kg/injection, schedule: Q04DX003 (ip), vehicle: saline with Tween-80 96 % of control | endpoint: mean survival time, dose: 37.5 mg/kg/injection, schedule: Q04DX003 (ip), vehicle: saline with Tween-80 96 % of control | endpoint: mean survival time, dose: 75.0 mg/kg/injection, schedule: Q04DX003 (ip), vehicle: saline with Tween-80 104 % of control | endpoint: mean survival time, dose: 150.0 mg/kg/injection, schedule: Q04DX003 (ip), vehicle: saline with Tween-80 96 % of control

COc1cc(CC#N)ccc1OCc1ccccc1
inactive: endpoint: mean survival time, dose: 12.5 mg/kg/injection, schedule: Q01DX009 (ip), vehicle: other 102 % of control | endpoint: mean survival time, dose: 25.0 mg/kg/injection, schedule: Q01DX009 (ip), vehicle: other 101 % of control | endpoint: mean survival time, dose: 25.0 mg/kg/injection, schedule: Q04DX003 (ip), vehicle: other 102 % of control | endpoint: mean survival time, dose: 50.0 mg/kg/injection, schedule: Q01DX009 (ip), vehicle: other 100 % of control | endpoint: mean survival time, dose: 50.0 mg/kg/injection, schedule: Q04DX003 (ip), vehicle: other 96 % of control | endpoint: mean survival time, dose: 100.0 mg/kg/injection, schedule: Q04DX003 (ip), vehicle: other 103 % of control

CCCCNCC(C)C(=O)OC (configuration not stated)
inactive: [8] 98 % of control | [9] 98 % of control | [10] 102 % of control

COc1cc2c(c(OC)c1OC)-c1ccc(OC)c(=O)cc1[C@@H](N)CC2
inactive: endpoint: median survival time, dose: 1.5 mg/kg/injection, schedule: Q01DX009 (ip), vehicle: saline 120 % of control

Cc1cccc(C)c1NC1=CC(=O)C(=O)c2ccccc21
inactive: [2] 95 % of control | [3] 89 % of control | [4] 97 % of control

C#CCOC(=O)NC1CCCCC1
inactive: [5] 104 % of control | [6] 105 % of control | [7] 102 % of control

CCCC(=O)c1cc(O)ccc1O
inactive: [13] 101 % of control | [14] 96 % of control | endpoint: mean survival time, dose: 400.0 mg/kg/injection, schedule: Q01DX001 (ip), vehicle: saline 104 % of control

N#CC(CC(=O)c1ccc(Br)cc1)c1ccccc1 (configuration not stated)
inactive: [8] 95 % of control | [9] 91 % of control | [10] 95 % of control

Cc1c(C)c(C)c2c(c1C)CCC2O (configuration not stated)
inactive: [15] 102 % of control and 105 % of control | [16] 97 % of control and 94 % of control | [17] 100 % of control [middle of 4 runs]

Cc1ccoc1N(O)c1occc1C
inactive: [18] 93 % of control | [19] 101 % of control | [20] 95 % of control

C=C(C(=O)OC)N1C(=O)CC(C)C1=O (configuration not stated)
inactive: endpoint: mean survival time, dose: 12.5 mg/kg/injection, schedule: Q04DX002 (ip), vehicle: saline with Tween-80 97 % of control | endpoint: mean survival time, dose: 25.0 mg/kg/injection, schedule: Q04DX002 (ip), vehicle: saline with Tween-80 108 % of control | endpoint: mean survival time, dose: 50.0 mg/kg/injection, schedule: Q04DX002 (ip), vehicle: saline with Tween-80 90 % of control | [1] 86 % of control

COC(=O)CCS/C=C/C(=O)O
inactive: [18] 97 % of control | [19] 100 % of control | [20] 97 % of control

COC(OC)C1C=CC=CC=C1
inactive: endpoint: mean survival time, dose: 100.0 mg/kg/injection, schedule: Q04DX003 (ip), vehicle: saline sonified 92 % of control | endpoint: mean survival time, dose: 200.0 mg/kg/injection, schedule: Q04DX003 (ip), vehicle: saline sonified 94 % of control | endpoint: mean survival time, dose: 400.0 mg/kg/injection, schedule: Q04DX003 (ip), vehicle: saline sonified 90 % of control

CC(C)=C/C(C)=C(/C#N)C(=O)OC(C)C
inactive: [2] 97 % of control | [3] 97 % of control

O=C(O)/C=C/C(=O)Nc1ccccc1Cl
inactive: [11] 96 % of control | [8] 94 % of control | [12] 96 % of control | [9] 105 % of control | [10] 101 % of control

O=C(/C=C\C=C\c1ccc2c(c1)OCO2)N1CCCCC1
inactive: [15] 111 % of control | [16] 107 % of control | [17] 104 % of control

Cc1ccc(-n2c(=S)[nH]c3ccc(C)cc3c2=O)cc1
inactive: endpoint: mean survival time, dose: 0.38 mg/kg/injection, schedule: Q01DX009 (ip), vehicle: saline with Tween-80 90 % of control | endpoint: mean survival time, dose: 0.75 mg/kg/injection, schedule: Q01DX009 (ip), vehicle: saline with Tween-80 92 % of control | endpoint: mean survival time, dose: 1.5 mg/kg/injection, schedule: Q01DX009 (ip), vehicle: saline with Tween-80 98 % of control | endpoint: mean survival time, dose: 1.56 mg/kg/injection, schedule: Q01DX009 (ip), vehicle: saline with Tween-80 95 % of control | endpoint: mean survival time, dose: 25.0 mg/kg/injection, schedule: Q04DX003 (ip), vehicle: saline with Tween-80 92 % of control | endpoint: mean survival time, dose: 50.0 mg/kg/injection, schedule: Q04DX003 (ip), vehicle: saline with Tween-80 90 % of control | [8] 87 % of control
